The text below walks through data of US5569456A, “Biologically active rupununines” (priority 1994, dated 1996).

The nature of data set [1]: Solubility of crystalline rupununine in organic solvents. The data set is classed as physicochemical. Conditions: crystalline white solid. How it is done: (§1) Rupununine (100 mg.) was dissolved in the minimum volume of distilled acetone (2 ml). The solution was warmed gently, filtered and then left in the refrigerator overnight. This produced white needles which were recrystallized in acetone giving crystalline rupununine (45 mg.). Further crystalline samples were also obtained by the same treatment with acetone, of Fraction C.1 and C.2. The crystals were dried in a drying pistol under nitrogen, over phosphorus pentoxide at 60° C. overnight. […] The crystals melted between 214°-217° C., and were fairly stable, if kept under nitrogen at room temperature, even for prolonged periods.

Data set [2] is described as follows: Stability of rupununine crystals under nitrogen at room temperature. The data set is classed as physicochemical. As to conditions: crystals kept under nitrogen at room temperature, prolonged periods. How it is done:
as §1

Turning to rupununine, the solubility in chloroform entry in data set [1] (chloroform) is reported as “fairly soluble”. The solubility in ethanol result in data set [1] (ethanol) is reported as “fairly soluble”. For the same substance, the solubility in ether result in data set [1] (ether) is given as “only partially soluble”. The solubility in methanol result in data set [1] (methanol) was “fairly soluble”. Also, the stability entry in data set [2] is “fairly stable”.
